Laboratory results: patent US20050239656A1, “Pyridine compounds or salts thereof and herbicides containing the same” (priority 2002, published 2005)

Assays:
prickly sida [1] = experiment: Test Example 2: soil surface treatment, upland pot test; assay type: in vivo, Sida spinosa L.; conditions: active ingredient 500 g/ha, observed 20th to 28th day
Procedure, shortened: (§1)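 Herbicidal effect is given as percent growth control, assessed by eye 20 to 28 days post-spray against untreated plants (0) and full kill (100). Treatment: soil-surface application one day after sowing, formulated product diluted in 1,500 L/ha water, upland soil, 1/170,000 ha pots.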

barnyardgrass [2] = experiment: Test Example 1: foliage treatment, upland pot test; assay type: in vivo, Echinochloa crus-galli L.; conditions: active ingredient 500 g/ha, observed 18th to 23rd day, 0 = non-treated, 100 = complete kill
Procedure, shortened: (§2)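 Visual growth-control scores (0 = untreated, 100 = complete kill) were taken 18–23 days after foliar spraying of a wettable powder or emulsifiable concentrate, diluted in 500 L/ha water with 0.1% (v/v) spreader. Treatment leaf stages: barnyardgrass 1.3–2.8, rice 1.2–2.6, wheat 1.3–2.4, soybean 0.1–0.4.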

rice [3] = experiment: Test Example 1: foliage treatment, upland pot test; assay type: in vivo, Oryza sativa L.; conditions: crop, active ingredient 500 g/ha, observed 18th to 23rd day, 0 = non-treated, 100 = complete kill
Procedure, shortened: as §2

velvetleaf [4] = experiment: Test Example 1: foliage treatment, upland pot test; assay type: in vivo, Abutilon theophrasti MEDIC.; conditions: active ingredient 500 g/ha, observed 18th to 23rd day, 0 = non-treated, 100 = complete kill
rice (var. Nihonbare) = experiment: Test Example 3: paddy pot test, transplanted rice; assay type: in vivo, Oryza sativa L.; conditions: applied 4th day after transplantation, visually observed 21st day after application, 0 = non-treated, 100 = complete kill
Procedure, shortened: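 Visual crop-injury rating (0 = as untreated, 100 = complete kill, %) taken 21 days post-application. Treatment: formulated compound, water-diluted, pipetted into 3–4 cm flood water at a preset active-ingredient dose, 4 days after transplanting 2-leaf Nihonbare rice 3 cm deep in puddled paddy soil.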

redroot pigweed [5] = experiment: Test Example 1: foliage treatment, upland pot test; assay type: in vivo, Amaranthus retroflexus L.; conditions: active ingredient 500 g/ha, observed 18th to 23rd day, 0 = non-treated, 100 = complete kill
crabgrass [6] = experiment: Test Example 2: soil surface treatment, upland pot test; assay type: in vivo, Digitaria sanguinalis L.; conditions: active ingredient 500 g/ha, observed 20th to 28th day
Procedure, shortened: as §1

rice [7] = experiment: as above; assay type: in vivo, Oryza sativa L.; conditions: active ingredient 500 g/ha, observed 20th to 28th day
Procedure, shortened: as §1

soybean [8] = experiment: as above; assay type: in vivo, Glycine max Merr.; conditions: active ingredient 500 g/ha, observed 20th to 28th day
Procedure, shortened: as §1

velvetleaf [9] = experiment: as above; assay type: in vivo, Abutilon theophrasti MEDIC.; conditions: active ingredient 500 g/ha, observed 20th to 28th day
Procedure, shortened: as §1

green foxtail [10] = experiment: Test Example 1: foliage treatment, upland pot test; assay type: in vivo, Setaria viridis L.; conditions: active ingredient 500 g/ha, observed 18th to 23rd day, 0 = non-treated, 100 = complete kill
prickly sida [11] = experiment: Test Example 1: foliage treatment, upland pot test; assay type: in vivo, Sida spinosa L.; conditions: active ingredient 500 g/ha, observed 18th to 23rd day, 0 = non-treated, 100 = complete kill
green foxtail [12] = experiment: Test Example 2: soil surface treatment, upland pot test; assay type: in vivo, Setaria viridis L.; conditions: active ingredient 500 g/ha, observed 20th to 28th day
Procedure, shortened: as §1

wheat [13] = experiment: Test Example 1: foliage treatment, upland pot test; assay type: in vivo, Triticum spp.; conditions: crop, active ingredient 500 g/ha, observed 18th to 23rd day, 0 = non-treated, 100 = complete kill
Source text: Upland field soil was put into a 1/170,000 ha pot, and seed of various plants were sown. Then, when the plants reached predetermined leaf stages ((1) barnyardgrass: 1.3 to 2.8 leaf stages, (2) crabgrass: 1.0 to 2.8 leaf stages, (3) green foxtail: 1.3 to 2.6 leaf stages, (4) redroot pigweed: 0.1 to 1.2 leaf stages, (5) prickly sida: 0.1 to 1.2 leaf stages, (6) velvetleaf: 0.1 to 1.2 leaf stages, (7) tall morningglory: 0.1 to 1.5 leaf stages, (8) rice: 1.2 to 2.6 leaf stages, (9) wheat: 1.3 to 2.4 leaf stages, (10) corn, 2.1 to 3.2 leaf stages, (11) soybean: 0.1 to 0.4 leaf stage), a wettable powder or emulsifiable concentrate having the compound of the present invention formulated in accordance with a usual formulation method, was weighed so that the active ingredient would be a predetermined amount, and diluted with water in an amount of 500 L/ha. To the diluted solution, 0.1% (v/v) of agricultural spreader was added. The herbicide thus adjusted was applied by a small size sprayer for foliage treatment. On the 18th to 23rd days after the application of the herbicide, the growth of the respective plants was visually observed, and the herbicidal effects were evaluated by the growth controlling degrees (%) ranging from 0 (equivalent to the non-treated plot) to 100 (complete kill), whereby the results shown in Table 3, were obtained.

barnyardgrass [14] = experiment: Test Example 3: paddy pot test, application under submerged conditions; assay type: in vivo, Echinochloa crus-galli L.; conditions: submerged application at 0.5 leaf stage, visually observed 14 days after application, 0 = non-treated, 100 = complete kill
Procedure, shortened: (§3)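 Visual rating of growth control (0% equals untreated, 100% complete kill) made 14 days after treatment. Compound, formulated as wettable powder or emulsifiable concentrate and diluted in water, was pipetted under submerged conditions at predetermined active-ingredient doses once weeds reached 0.5-leaf (barnyardgrass, bulrush) or primary-leaf (wapato, from tubers) stage. Pots of greenhouse paddy soil held 3–4 cm flooding.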

soybean [15] = experiment: Test Example 1: foliage treatment, upland pot test; assay type: in vivo, Glycine max Merr.; conditions: crop, active ingredient 500 g/ha, observed 18th to 23rd day, 0 = non-treated, 100 = complete kill
Procedure, shortened: as §2

wheat [16] = experiment: Test Example 2: soil surface treatment, upland pot test; assay type: in vivo, Triticum spp.; conditions: active ingredient 500 g/ha, observed 20th to 28th day
Procedure, shortened: as §1

barnyardgrass [17] = experiment: as above; assay type: in vivo, Echinochloa crus-galli L.; conditions: active ingredient 500 g/ha, observed 20th to 28th day
Procedure, shortened: as §1

corn [18] = experiment: Test Example 1: foliage treatment, upland pot test; assay type: in vivo, Zea mays L.; conditions: crop, active ingredient 500 g/ha, observed 18th to 23rd day, 0 = non-treated, 100 = complete kill
Procedure, shortened: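 In this upland pot foliage test, corn plants at 2.1 to 3.2 leaf stages were sprayed by a small size sprayer. The spray was a conventionally formulated wettable powder or emulsifiable concentrate weighed to a set active ingredient amount, diluted in water at 500 L/ha, plus 0.1% (v/v) agricultural spreader. Visual assessment on days 18 to 23 gave growth controlling degree (%), where 0 equals untreated and 100 means complete kill.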

corn [19] = experiment: Test Example 2: soil surface treatment, upland pot test; assay type: in vivo, Zea mays L.; conditions: active ingredient 500 g/ha, observed 20th to 28th day
Procedure, shortened: as §1

japanese bulrush = experiment: Test Example 3: paddy pot test, application under submerged conditions; assay type: in vivo, Scirpus juncoides; conditions: submerged application at 0.5 leaf stage, visually observed 14 days after application, 0 = non-treated, 100 = complete kill
Procedure, shortened: as §3

crabgrass [20] = experiment: Test Example 1: foliage treatment, upland pot test; assay type: in vivo, Digitaria sanguinalis L.; conditions: active ingredient 500 g/ha, observed 18th to 23rd day, 0 = non-treated, 100 = complete kill
redroot pigweed [21] = experiment: Test Example 2: soil surface treatment, upland pot test; assay type: in vivo, Amaranthus retroflexus L.; conditions: active ingredient 500 g/ha, observed 20th to 28th day
Procedure, shortened: as §1

| SMILES | Growth controlling degree (%) Prickly sida (prickly sida [1]) [%] | Growth controlling degree (%) Barnyardgrass (barnyardgrass [2]) [%] | Growth controlling degree (%) Rice (rice [3]) [%] | Growth controlling degree (%) Velvetleaf (velvetleaf [4]) [%] | Growth controlling degree (%) Redroot pigweed (redroot pigweed [5]) [%] | Growth controlling degree (%) Crabgrass (crabgrass [6]) [%] | Growth controlling degree (%) Rice (rice [7]) [%] | Growth controlling degree (%) Soyabean (soybean [8]) [%] | Growth controlling degree (%) Velvetleaf (velvetleaf [9]) [%] | Growth controlling degree (%) Green foxtail (green foxtail [10]) [%] | Growth controlling degree (%) Prickly sida (prickly sida [11]) [%] | Growth controlling degree (%) Green foxtail (green foxtail [12]) [%] | Growth controlling degree (%) wheat (wheat [13]) [%] | Growth controlling degree (%) Soybean (soybean [15]) [%] | Growth controlling degree (%) wheat (wheat [16]) [%] | Growth controlling degree (%) Barnyardgrass (barnyardgrass [17]) [%] | Growth controlling degree (%) Corn (corn [18]) [%] | Growth controlling degree (%) Corn (corn [19]) [%] | Growth controlling degree (%) Crabgrass (crabgrass [20]) [%] | Growth controlling degree (%) Redroot pigweed (redroot pigweed [21]) [%] | also measured |
| --- | --- | --- | --- | --- | --- | --- | --- | --- | --- | --- | --- | --- | --- | --- | --- | --- | --- | --- | --- | --- | --- |
| CC(C)C(c1cnccc1C(F)(F)F)N(C)C(=O)CC1Cc2ccccc2C1 (stereo not shown) [I-191] | 10 | 70 | 20 | 80 | 70 | 98 | 20 | 30 | 10 | 80 | 80 | 100 | 10 | 50 | 20 | 100 | 60 | 40 | 70 | 50 | Growth controlling degree (%) Rice (rice (var. Nihonbare); active ingredient 500 g/ha): 20%; Growth controlling degree (%) Barnyardgrass (barnyardgrass [14]; active ingredient 500 g/ha): 100%; Growth controlling degree (%) Japanese bulrush (japanese bulrush; active ingredient 500 g/ha): 90% |
| CC(C)C(=O)N(C)C(c1cnccc1C(F)(F)F)C(C)C (stereo not shown) [I-198] | 90 | 70 | 80 | 40 | 70 | 100 | 98 | 90 | 70 | 60 | 70 | 100 | 70 | 60 | 98 | 100 | 70 | 70 | 80 | 80 | Growth controlling degree (%) Rice (rice (var. Nihonbare); active ingredient 250 g/ha): 60%; Growth controlling degree (%) Barnyardgrass (barnyardgrass [14]; active ingredient 250 g/ha): 100%; Growth controlling degree (%) Japanese bulrush (japanese bulrush; active ingredient 250 g/ha): 100% |
| CC(C)C(c1cnccc1C(F)(F)F)N(C)C(=O)Cc1ccc(OC(F)F)cc1 (racemic) [I-128] | 80 | 70 | 50 | 80 | 60 | 100 | 40 | 20 | 60 | 50 | 80 | 100 | 30 | 80 | 30 | 100 | 70 | 50 | 95 | 30 | Growth controlling degree (%) Rice (rice (var. Nihonbare); active ingredient 250 g/ha): 0%; Growth controlling degree (%) Barnyardgrass (barnyardgrass [14]; active ingredient 250 g/ha): 100%; Growth controlling degree (%) Japanese bulrush (japanese bulrush; active ingredient 250 g/ha): 90% |
| CC(C)C(c1cnccc1C(F)(F)F)N(C)S(=O)(=O)c1ccc(Cl)cc1 (racemic) [I-125] | 80 | 70 | 40 | 70 | 60 | 100 | 30 | 10 | 70 | 70 | 80 | 100 | 10 | 80 | 20 | 100 | 60 | 10 | 95 | 50 | Growth controlling degree (%) Rice (rice (var. Nihonbare); active ingredient 250 g/ha): 10%; Growth controlling degree (%) Barnyardgrass (barnyardgrass [14]; active ingredient 250 g/ha): 100%; Growth controlling degree (%) Japanese bulrush (japanese bulrush; active ingredient 250 g/ha): 70% |
| CC(C)C(c1cnccc1C(F)(F)F)N(C)S(=O)(=O)c1ccc(F)cc1 (racemic) [I-124] | 90 | 80 | 40 | 70 | 50 | 100 | 20 | 30 | 80 | 70 | 80 | 100 | 60 | 80 | 10 | 100 | 60 | 20 | 95 | 60 | Growth controlling degree (%) Rice (rice (var. Nihonbare); active ingredient 250 g/ha): 0%; Growth controlling degree (%) Barnyardgrass (barnyardgrass [14]; active ingredient 250 g/ha): 100%; Growth controlling degree (%) Japanese bulrush (japanese bulrush; active ingredient 250 g/ha): 70% |
